Laboratory results reported in PubChem BioAssay (NCI).
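Values below derive from 48-hour exposures of cells grown in 96-well plates, with endpoints linearly interpolated between the two concentrations bracketing the appropriate inhibition level. TGI: concentration producing complete growth inhibition.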

Assays:
Experiment in all cases: NCI anticancer screen, dose series, 48 h
HCT-116 colon = tested on: HCT-116 colon
M19-MEL melanoma = tested on: M19-MEL melanoma
KM12 colon = tested on: KM12 colon
EKVX NSCLC = tested on: EKVX NSCLC
OVCAR-8 ovarian = tested on: OVCAR-8 ovarian
UO-31 renal = tested on: UO-31 renal
OVCAR-3 ovarian = tested on: OVCAR-3 ovarian
RXF-631 renal = tested on: RXF-631 renal
DLD-1 colon = tested on: DLD-1 colon
MOLT-4 leukemia = tested on: MOLT-4 leukemia
SF-295 CNS = tested on: SF-295 CNS
LOX IMVI melanoma = tested on: LOX IMVI melanoma
SK-MEL-2 melanoma = tested on: SK-MEL-2 melanoma
UACC-62 melanoma = tested on: UACC-62 melanoma
SF-268 CNS = tested on: SF-268 CNS
NCI-H522 lung = tested on: NCI-H522 lung
SK-MEL-28 melanoma = tested on: SK-MEL-28 melanoma
786-0 renal = tested on: 786-0 renal
SNB-75 CNS = tested on: SNB-75 CNS
DMS 273 small cell lung = tested on: DMS 273 small cell lung
SR leukemia = tested on: SR leukemia
HCT-15 colon = tested on: HCT-15 colon
SK-OV-3 ovarian = tested on: SK-OV-3 ovarian
SK-MEL-5 melanoma = tested on: SK-MEL-5 melanoma
U251 CNS = tested on: U251 CNS
A498 renal = tested on: A498 renal
K-562 leukemia = tested on: K-562 leukemia
SW-620 colon = tested on: SW-620 colon
CAKI-1 renal = tested on: CAKI-1 renal
HL-60(TB) leukemia = tested on: HL-60(TB) leukemia
ACHN renal = tested on: ACHN renal
DMS 114 small cell lung = tested on: DMS 114 small cell lung
SF-539 CNS = tested on: SF-539 CNS
OVCAR-4 ovarian = tested on: OVCAR-4 ovarian
NCI-H23 lung = tested on: NCI-H23 lung
SN12C renal = tested on: SN12C renal
RXF 393 renal = tested on: RXF 393 renal
RPMI-8226 leukemia = tested on: RPMI-8226 leukemia
CCRF-CEM leukemia = tested on: CCRF-CEM leukemia
HOP-62 NSCLC = tested on: HOP-62 NSCLC
LXFL 529 NSCLC = tested on: LXFL 529 NSCLC
IGROV1 ovarian = tested on: IGROV1 ovarian
UACC-257 melanoma = tested on: UACC-257 melanoma
A549 NSCLC = tested on: A549 NSCLC
M14 melanoma = tested on: M14 melanoma
MALME-3M melanoma = tested on: MALME-3M melanoma
NCI-H460 lung = tested on: NCI-H460 lung
HT29 colon = tested on: HT29 colon
HCC-2998 colon = tested on: HCC-2998 colon
SNB-19 CNS = tested on: SNB-19 CNS
HOP-92 NSCLC = tested on: HOP-92 NSCLC
OVCAR-5 ovarian = tested on: OVCAR-5 ovarian
HOP-18 NSCLC = tested on: HOP-18 NSCLC
TK-10 renal = tested on: TK-10 renal
XF 498 CNS = tested on: XF 498 CNS
COLO 205 colon = tested on: COLO 205 colon
KM20L2 colon = tested on: KM20L2 colon
NCI-H226 lung = tested on: NCI-H226 lung
SNB-78 CNS = tested on: SNB-78 CNS

CC(CCCOC(c1ccccc1)(c1ccccc1)c1ccccc1)OC(=O)Nc1cc([N+](=O)[O-])cc([N+](=O)[O-])c1 (centres undefined)
TGI (HCT-116 colon): > 100 µM
TGI (M19-MEL melanoma): > 100 µM
TGI (KM12 colon): > 100 µM
TGI (EKVX NSCLC): 97 µM
TGI (OVCAR-8 ovarian): > 100 µM
TGI (UO-31 renal): > 100 µM
TGI (OVCAR-3 ovarian): > 100 µM
TGI (RXF-631 renal): > 100 µM
TGI (DLD-1 colon): > 100 µM
TGI (MOLT-4 leukemia): > 100 µM
TGI (SF-295 CNS): > 100 µM
TGI (LOX IMVI melanoma): > 100 µM
TGI (SK-MEL-2 melanoma): 78.9 µM
TGI (UACC-62 melanoma): 50.2 µM
TGI (SF-268 CNS): > 100 µM
TGI (NCI-H522 lung): 59.5 µM
TGI (SK-MEL-28 melanoma): 54.4 µM
TGI (786-0 renal): 94.9 µM
TGI (SNB-75 CNS): 72.5 µM
TGI (DMS 273 small cell lung): > 100 µM
TGI (SR leukemia): > 100 µM
TGI (HCT-15 colon): > 100 µM
TGI (SK-OV-3 ovarian): 57.9 µM
TGI (SK-MEL-5 melanoma): 44.6 µM
TGI (U251 CNS): 83.8 µM
TGI (A498 renal): 72.3 µM
TGI (K-562 leukemia): > 100 µM
TGI (SW-620 colon): > 100 µM
TGI (CAKI-1 renal): 72.1 µM
TGI (HL-60(TB) leukemia): 85.3 µM
TGI (ACHN renal): 93.5 µM
TGI (DMS 114 small cell lung): > 100 µM
TGI (SF-539 CNS): > 100 µM
TGI (OVCAR-4 ovarian): > 100 µM
TGI (NCI-H23 lung): 58.7 µM
TGI (SN12C renal): > 100 µM
TGI (RXF 393 renal): > 100 µM
TGI (RPMI-8226 leukemia): > 100 µM
TGI (CCRF-CEM leukemia): > 100 µM
TGI (HOP-62 NSCLC): 83.4 µM
TGI (LXFL 529 NSCLC): > 100 µM
TGI (IGROV1 ovarian): > 100 µM
TGI (UACC-257 melanoma): 85.1 µM
TGI (A549 NSCLC): > 100 µM
TGI (M14 melanoma): > 100 µM
TGI (MALME-3M melanoma): 83.2 µM
TGI (NCI-H460 lung): 73.2 µM
TGI (HT29 colon): > 100 µM
TGI (HCC-2998 colon): > 100 µM
TGI (SNB-19 CNS): > 100 µM

CSc1nc(-c2ccccc2)c2c(n1)-c1ccccc1CC2
TGI (HCT-116 colon): > 100 µM
TGI (HOP-92 NSCLC): > 100 µM
TGI (M19-MEL melanoma): > 100 µM
TGI (KM12 colon): > 100 µM
TGI (EKVX NSCLC): > 100 µM
TGI (OVCAR-8 ovarian): > 100 µM
TGI (OVCAR-5 ovarian): > 100 µM
TGI (UO-31 renal): > 100 µM
TGI (OVCAR-3 ovarian): > 100 µM
TGI (RXF-631 renal): > 100 µM
TGI (DLD-1 colon): > 100 µM
TGI (MOLT-4 leukemia): > 100 µM
TGI (SF-295 CNS): > 100 µM
TGI (LOX IMVI melanoma): > 100 µM
TGI (SK-MEL-2 melanoma): > 100 µM
TGI (HOP-18 NSCLC): > 100 µM
TGI (UACC-62 melanoma): > 100 µM
TGI (SF-268 CNS): > 100 µM
TGI (NCI-H522 lung): > 100 µM
TGI (SK-MEL-28 melanoma): > 100 µM
TGI (786-0 renal): > 100 µM
TGI (SNB-75 CNS): > 100 µM
TGI (TK-10 renal): > 100 µM
TGI (SR leukemia): > 100 µM
TGI (SK-OV-3 ovarian): > 100 µM
TGI (SK-MEL-5 melanoma): > 100 µM
TGI (U251 CNS): > 100 µM
TGI (A498 renal): > 100 µM
TGI (K-562 leukemia): > 100 µM
TGI (XF 498 CNS): > 100 µM
TGI (COLO 205 colon): > 100 µM
TGI (SW-620 colon): > 100 µM
TGI (CAKI-1 renal): > 100 µM
TGI (HL-60(TB) leukemia): > 100 µM
TGI (DMS 114 small cell lung): > 100 µM
TGI (OVCAR-4 ovarian): > 100 µM
TGI (NCI-H23 lung): > 100 µM
TGI (SN12C renal): > 100 µM
TGI (KM20L2 colon): > 100 µM
TGI (RXF 393 renal): > 100 µM
TGI (RPMI-8226 leukemia): > 100 µM
TGI (CCRF-CEM leukemia): > 100 µM
TGI (HOP-62 NSCLC): > 100 µM
TGI (LXFL 529 NSCLC): > 100 µM
TGI (IGROV1 ovarian): > 100 µM
TGI (NCI-H226 lung): > 100 µM
TGI (UACC-257 melanoma): > 100 µM
TGI (A549 NSCLC): > 100 µM
TGI (M14 melanoma): > 100 µM
TGI (MALME-3M melanoma): > 100 µM
TGI (NCI-H460 lung): > 100 µM
TGI (HT29 colon): > 100 µM
TGI (SNB-19 CNS): > 100 µM

CCC1=CC2CC(C(=O)OC)C1(N(C)C)C2=O (centres undefined)
TGI (HCT-116 colon): > 100 µM
TGI (HOP-92 NSCLC): > 100 µM
TGI (M19-MEL melanoma): > 100 µM
TGI (KM12 colon): > 100 µM
TGI (EKVX NSCLC): > 100 µM
TGI (OVCAR-8 ovarian): > 100 µM
TGI (OVCAR-5 ovarian): > 100 µM
TGI (UO-31 renal): > 100 µM
TGI (RXF-631 renal): > 100 µM
TGI (MOLT-4 leukemia): > 100 µM
TGI (SF-295 CNS): > 100 µM
TGI (UACC-62 melanoma): > 100 µM
TGI (SNB-78 CNS): > 100 µM
TGI (SF-268 CNS): > 100 µM
TGI (NCI-H522 lung): > 100 µM
TGI (SK-MEL-28 melanoma): > 100 µM
TGI (TK-10 renal): > 100 µM
TGI (DMS 273 small cell lung): > 100 µM
TGI (SR leukemia): > 100 µM
TGI (SK-OV-3 ovarian): > 100 µM
TGI (U251 CNS): > 100 µM
TGI (A498 renal): > 100 µM
TGI (HL-60(TB) leukemia): > 100 µM
TGI (ACHN renal): > 100 µM
TGI (DMS 114 small cell lung): > 100 µM
TGI (NCI-H23 lung): > 100 µM
TGI (RXF 393 renal): > 100 µM
TGI (CCRF-CEM leukemia): > 100 µM
TGI (HOP-62 NSCLC): > 100 µM
TGI (IGROV1 ovarian): > 100 µM
TGI (UACC-257 melanoma): > 100 µM
TGI (A549 NSCLC): > 100 µM
TGI (M14 melanoma): > 100 µM
TGI (NCI-H460 lung): > 100 µM
TGI (HT29 colon): > 100 µM
TGI (SNB-19 CNS): > 100 µM
